Experimental data: paper PMC11428593 (Antibiotics, 2024)
≈ marks a conversion by molar mass, not a printed value. Where “and” joins values, the source holds several entries; their conditions need not be identical. Equal entries are not always repeated. Entries after “also recorded” stand apart in the source; their conditions may differ. Where two headings read alike, the source gives them in different places.

What was measured:
[1] = test system: 3T3 mouse embryonic fibroblast cells; assay: MTT cytotoxicity assay; type: cell-based; settings: 3T3 cells; for IC50: Mus musculus, NIH3T3, 24 h
Protocol: To gauge the potential for toxicity of the new alkyl pyridinol derivates, we tested their cytotoxicity by examining the metabolic activity of 3T3 mouse embryonic fibroblast cells using the tetrazolium dye 3-(4,5-dimethylthiazol-2-yl)-2,5-diphenyltetrazolium bromide (MTT), as has been done before. The dye is reduced by NAD(P)H-dependent cellular oxidoreductases, resulting in the formation of the insoluble formazan with its purple color, which can be quantified. 3T3 cells were treated with different concentrations of the alkyl pyridinol compounds for 24 h, and the absorbance of the MTT-treated cell culture supernatant was measured at 540 nm. Absorbances were plotted against concentrations of the compound added (Supplementary Figure S2), and IC50, the concentration of a drug required for 50% metabolic inhibition, was calculated for each compound. […] However, the concentrations at which these compounds compromise 3T3 mouse embryonic fibroblast cells are well above their reported MICs (Table 2).
3T3 cells (male mouse embryonic fibroblast Flp-In cells, Thermo Fisher, Waltham, MA, USA) were cultured in D-MEM (Corning, Corning, NY, USA) supplemented with 10% Fetal Clone III (Cytiva Hyclone, Bengaluru, India) and L-Glutamine (Alfa Aesar, Haverhill, MA, USA) at 37 °C and 5% CO2. To determine the compound’s toxicity, 3T3 cells were seeded at a density of 10,000 cells/well into 96-well plates (Fisherbrand, Waltham, MA, USA) and cultured as described above. After 16 h, the culture medium was extracted and replaced by supplemented D-MEM without phenol red (Corning, Glendale, AZ, USA) containing individual compounds in the indicated concentrations. Furthermore, 1% sodium dodecyl sulfate (SDS) and 2% dimethyl sulfoxide (DMSO), equivalent to the volume of the DMSO in the highest compound concentration, were used as the cell death and vehicle control, respectively. Moreover, 16 h after compound treatment, the culture medium was extracted again and replaced by fresh supplemented D-MEM without phenol red. Subsequently, 10 µL of 5 mg/mL MTT reagent (Alfa Aesar, Haverhill, MA, USA), dissolved in DMSO, was added to each well, and the cells were incubated for 2 h at 37 °C and 5% CO2. Next, 85 µL of the culture supernatant was removed from each well, mixed with 50 µL of DMSO, and incubated in an optical grade 96-well plate (Fisherbrand, Waltham, MA, USA) in a shaking incubator at 37 °C and 250 rpm. The absorbance of the MTT-treated cell culture supernatant was measured at 540 nm in an ELx808 plate reader (Biotek, Winooski, VT, USA).

MRSA USA300LAC [2] = assay: Minimal bactericidal concentration (MBC); type: cell-based, Staphylococcus aureus; settings: for MBC: Staphylococcus aureus, MRSA USA300LAC, concentration at which no CFUs were observed; for bactericidal or bacteriostatic effect: USA300LAC, in words
Protocol: In brief, 10 µL of each culture was serially diluted and plated onto prewarmed LB agar and incubated overnight at 37 °C under static conditions to observe the colony-forming units (CFUs). The concentration at which no CFUs were observed was recorded as the MBC.

S. aureus/MRSA strains = assay: MIC by broth microdilution, S. aureus/MRSA strains; type: cell-based, Staphylococcus aureus; settings: S. aureus/MRSA strains tested, strain not singled out
Source text: (§1) To assess the impact of the nitrogen position in our newly synthesized anaephene derivates, we analyzed their antimicrobial activities against various S. aureus strains, including ATCC 25,923 and the two methicillin-resistant S. aureus (MRSA) strains ATCC 33,591 and ATCC BAA-44. […] We determined the minimum inhibitory concentrations (MIC) of each of our compounds against the different bacterial strains by broth microdilution following the CLSI guidelines. As expected, all five compounds tested were completely ineffective against the Gram-negative P. aeruginosa strain ATCC 27,853 (Table 1).
(§2) The MIC values of the alkyl pyridinol derivatives against the S. aureus strain ATCC 25923, MRSA strains ATCC 33591, ATCC BAA-44, and USA300LAC, as well as the P. aeruginosa strain ATCC 27853, were determined by following the CLSI guidelines for the broth microdilution antibiotic sensitivity testing protocol. In brief, the overnight cultures were diluted into Mueller Hinton Broth (MHB) to a final inoculum concentration of 5 × 10^5 CFU/mL (O.D600nm = 0.00001) and dispensed into a 96-well polystyrene plate (Alkali Scientific, Fort Lauderdale, FL, USA). Alkyl pyridine compounds were diluted into inoculated MHB to the indicated concentrations from stock solutions that would allow for DMSO concentrations below 5%, resulting in a total volume of 200 μL per well. The plates were subsequently incubated at 37 °C for 16 h at 300 rpm. The MIC values, which are defined as the lowest compound concentration that inhibited growth, were determined from three biological replicates.

MRSA ATCC 33591 = assay: MIC by broth microdilution (CLSI); type: cell-based; settings: Staphylococcus aureus, MHB, 37 °C, 16 h
Source text: as §1, §2

P. aeruginosa ATCC 27853 = assay: MIC by broth microdilution (CLSI); type: cell-based; settings: Pseudomonas aeruginosa, ATCC27853, MHB, 37 °C, 16 h
Source text: as §1, §2

MRSA USA300LAC [3] = assay: MIC by broth microdilution (CLSI); type: cell-based, Staphylococcus aureus; settings: Staphylococcus aureus; MRSA USA300LAC; MHB, 37 °C, 16 h; read-out: MIC
Protocol: as §2

[4] = test system: S. aureus strain USA300LAC; assay: Growth curve-based assay of exponentially growing cells; type: cell-based, Staphylococcus aureus
Protocol: Considering the divergent antimicrobial effects of our new compounds, we proceeded to assess the impact of JC-01-072 and JC-01-074 on the growth of exponentially growing USA300LAC cells. We performed growth-curve-based assays of the USA300LAC cultures that were either left untreated or treated with 4–16 μg/mL of the alkyl pyridinol compound once they reached the mid-log phase (OD600nm~0.2–0.3).
Figure 2 Impact of alkyl pyridinol exposure on exponentially growing S. aureus. An overnight culture of the S. aureus strain USA300LAC was diluted into fresh TSB and grown to mid-exponential phase (OD600nm = 0.2–0.3) prior to treatment with 4–16 µg/mL JC-01-072 (A) and JC-01-074 (B). Optical densities were measured at 600 nm at 10 min intervals for 16–18 h (n = 3, ±S.D.).
The overnight USA300LAC cultures were diluted into fresh TSB media to an O.D.600nm = 0.001 and incubated at 37 °C under shaking conditions (300 rpm) until an O.D.600nm of 0.2–0.3 (early log phase) was reached. The cultures were subsequently transferred to a 96-well polystyrene plate (Alkali Scientific, Fort Lauderdale, FL, USA), following which DMSO (control) or alkyl pyridine compounds were added at the indicated final concentrations. The cells were then incubated at 37 °C for 16 h at 300 rpm, and the O.D.600nm measurements were taken every 10 min for 16 h in a Tecan Infinite 200 plate reader (Tecan, Morgan Hill, CA, USA).

[5] = 24 hours, one value per biological replicate, read-out: IC50 of single biological replicates (Figure S2)
[6] = 24 h treatment, mean ± S.D., read-out: IC50
[7] = Staphylococcus aureus, MRSA, read-out: MIC

SMILES: CCCCCCCCCC#Cc1cccc(O)n1 [JC-01-074]
- IC50 of single biological replicates (Figure S2) ([1]; 24 hours, one value per biological replicate, listed as JC-01-74): 27.1 µg/ml and 26.7 µg/ml
- IC50 [1, 5]: 22.9 µg/mL
- IC50 [1, 6]: 104 ± 9.4 µM
- MBC (MRSA USA300LAC [2]): 16 µg/mL (≈ 65.2 µM)
- bactericidal or bacteriostatic effect (MRSA USA300LAC [2]): bactericidal
- MIC (S. aureus/MRSA strains; [7]): 16 µg/mL (≈ 65.2 µM)
- MIC (MRSA ATCC 33591): 16 µg/mL (≈ 65.2 µM)
- MIC (P. aeruginosa ATCC 27853): > 128 µg/mL
- MIC (MRSA USA300LAC [3]): 16 µg/mL (≈ 65.2 µM)
- delay of growth ([4]; 0.5× MIC, mid-log USA300LAC): 6 to 8 h
- effect on growth at 1× MIC ([4]; 1× MIC, mid-log USA300LAC): total growth arrest

SMILES: CCCCCCCCCC#Cc1cncc(O)c1 [JC-01-072]
- IC50 of single biological replicates (Figure S2) ([1]; 24 hours, one value per biological replicate, listed as JC-01-72): 41.1 µg/ml and 27.6 µg/ml and 35 µg/ml
- IC50 [1, 5]: 47.1 µg/mL
- IC50 [1, 6]: 153 ± 33.8 µM
- MBC (MRSA USA300LAC [2]): > 128 µg/mL
- bactericidal or bacteriostatic effect (MRSA USA300LAC [2]): bacteriostatic; also recorded: no significant killing
- MIC (S. aureus/MRSA strains): 4 to 8 µg/mL
- MIC (S. aureus/MRSA strains; [7]): 4 µg/mL (≈ 16.3 µM)
- MIC (MRSA ATCC 33591): 4 µg/mL (≈ 16.3 µM)
- MIC (P. aeruginosa ATCC 27853): > 128 µg/mL
- MIC (MRSA USA300LAC [3]): 8 µg/mL (≈ 32.6 µM)
- effect on growth of mid-log USA300LAC cells ([4]; 4–16 μg/mL, added at OD600nm ~0.2–0.3): little to no effects
